From patent publication US20110098180A1, “Herbicide-Resistant Plants, And Polynucleotides And Methods For Providing Same” (United States Department of Agriculture, priority 2002, published 2011)

Experiments:
Assay in all cases: Cross-resistance testing, His-tagged column-purified PDS (Table 2A)
[1] = target: hydrilla PDS Arg^304 → Cysteine, His-tagged (Hydrilla verticillata, UniProt Q66PY0, R304C); assay type: biochemical; conditions: Cysteine at 304; His-tagged, column-purified PDS; read-out: I50
hydrilla PDS Arg^304 → Cysteine, His-tagged (Hydrilla verticillata, UniProt Q66PY0, R304C), sequence (Q66PY0 77-580 R304C): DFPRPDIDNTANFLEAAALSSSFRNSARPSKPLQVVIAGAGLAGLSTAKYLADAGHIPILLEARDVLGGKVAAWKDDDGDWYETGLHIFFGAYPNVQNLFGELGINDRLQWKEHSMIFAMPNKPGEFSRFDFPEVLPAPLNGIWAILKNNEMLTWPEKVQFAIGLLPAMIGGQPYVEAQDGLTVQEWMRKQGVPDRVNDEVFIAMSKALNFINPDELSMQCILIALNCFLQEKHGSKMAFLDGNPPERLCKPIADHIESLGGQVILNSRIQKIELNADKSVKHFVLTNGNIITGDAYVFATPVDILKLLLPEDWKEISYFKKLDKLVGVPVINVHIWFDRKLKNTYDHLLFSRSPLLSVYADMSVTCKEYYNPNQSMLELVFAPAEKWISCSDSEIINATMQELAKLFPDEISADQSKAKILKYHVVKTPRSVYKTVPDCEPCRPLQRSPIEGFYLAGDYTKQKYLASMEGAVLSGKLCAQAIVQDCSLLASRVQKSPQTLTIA
Excerpt: (§1) In further cross-resistance testing similar to that described above, an alternative production and purification protocol was used in the preparation of the mutant PDS proteins, and the activity of the proteins was again tested using the same testing protocol. The alternative approach utilized His-tagging and column purification of the mutant PDS protins. The results are shown in. Table 2A below.
(§2) The plasmid pHy4ATG5 was made by cloning the Phytoene Desaturase (pds) gene from Hydrilla verticillata, including 323 by upstream of the beginning of the putative mature protein, into the vector TOPO4 (Invitrogen, Carlsbad, Calif.): The 1-323 by region contained three potential start codons (ATG)(positions 1, 114 and 225 bp) in frame with pds. In order to express pds in bacteria, deletion clones were made for each of the three potential start codons with and without ATG. Only the results for possible origins of translation 1 and 225 by (named ORF and 3ORF) are reported here. pds was PCR amplified and subcloned into TOPO4 using pHy4ATG5 as template and the reverse primer RPDS—1849 (5′[…] 3′). The forward primers used were ORF (5′ […] 3′), ORF-ATG (5′ […] 3′), 3_ORF (5′[…] 3′) and 3_ORF-ATG (5′ […] 3′). The resulting plasmids were named pORF, pORF-ATG (minus ATG codon), p3ORF and p3ORF-ATG. The pds-containing EcoRI-fragments of these plasmids were subcloned into the EcoRI site of pRSETb vector (Invitrogen) for Histidine tagging and bacterial expression. The resulting constructs were pHy4SET, pHy4SET-ATG (minus ATG), p3ORFSET and p3ORFSET-ATG.
(§3) Plasmid p3ORF-ATG was later mutagenized at the amino acid 304 of pds to replace the amino acid Arginine (Arg) by Histidine (His), Threonine (Thr), Serine (Ser), or Cysteine (Cys), using the QuickChange™ Site-Directed Mutagenesis Kit of Stratagene (La Jolla, Calif.). Primers used to replace Arg by His were Hyd-His-For (5′[…] 3′) and Hyd-His-Rev (5′ […] 3′); to replace Arg by Thr we used primers Hyd-Thr-For (5′[…] 3′) and Hyd-Thr-Rev (5′[…] 3′); to replace Arg by Ser we used Hyd-Ser-For (5′[…] 3′) and Hyd-Ser-Rev (5′[…] 3′); and Arg was replaced by Cys using Hyd-Cys-For (5′[…] 3′) and Hyd-Cys-Rev (5′[…] 3′). Resulting plasmids were named: p3ORFHisSet-ATG, p3ORFThrSet-ATG, p3ORFSerSet-ATG and p3ORFCysSet-ATG.
(§4) All pRSET derived constructs were transformed into BL21(DE3)pLysS cells (Invitrogen), induced with IPTG for protein expression, and the His tag overproduced proteins analyzed by Western blot using Anti-HisG antibody (Invitrogen, cat. #R940-25).
(§5) When working with His-tagged PDS proteins expressed as described in Example 4, the purified protein used for testing was prepared as follows. BL21(DE3)pLysS cells were grown overnight in 500 ml Luria Broth (LB) supplemented with carbenicillin (100 mg/l) and cloramphenicol (60 mg/l) at 37° C., and induced with 0.3 mM isopropylthio-β-D-galactoside (IPTG) for 3 hrs. Cells were lysed using a French press (Spectronics Instrument) at 20,000 psi and overexpressed PDS was purified on a nickel activated Hitrap Chelating HP column according to the manufacturers instructions (Amersham Bioscience).
(§6) Generally, PDS protein fractions prepared as described above (Non-His-tagged and His-tagged) were mixed with a soluble fraction from phytoene-producing E. coli cells. For the phytoene producing cells, a plasmid construct containing the genes GGPP synthase and phytoene synthase from Erwinia uredovora, transformed into the appropriate E. coli strain, was used (see, Misawa et al., J. of Bacteriology 177:6575, 1995). This E. coli strain was separately cultured and lysed, and its soluble components collected (“the EB extract”) in a fashion similar to that described above for the PDS-producing cells.
(§7) His-tagged, purified proteins prepared as described above were transferred to the assay buffer on a PD10 column (Amersham Bioscience) and the concentration was adjusted to 100 μg/mL. […]

[2] = target: hydrilla PDS Arg^304 → Serine, His-tagged (Hydrilla verticillata, UniProt Q66PY0, R304S); assay type: biochemical; conditions: Serine at 304; His-tagged, column-purified PDS; read-out: I50
hydrilla PDS Arg^304 → Serine, His-tagged (Hydrilla verticillata, UniProt Q66PY0, R304S), sequence (Q66PY0 77-580 R304S): as the sequence (Q66PY0 77-580 R304C) above, with C228S counted along it
Excerpt: as §1, §2, §3, §4, §5, §6, §7

[3] = tested on: hydrilla PDS Arg^304 → Histidine, His-tagged; assay type: biochemical, Hydrilla verticillata; conditions: Histidine at 304 relative to Arginine; Table 2A
Excerpt: as §1, §2, §3, §4, §5, §6, §7

[4] = tested on: hydrilla PDS Arg^304 → Serine, His-tagged; assay type: biochemical, Hydrilla verticillata; conditions: Serine at 304 relative to Arginine; Table 2A
Excerpt: as §1, §2, §3, §4, §5, §6, §7

[5] = target: hydrilla PDS Arg^304 → Histidine, His-tagged (Hydrilla verticillata, UniProt Q66PY0, R304H); assay type: biochemical; conditions: Histidine at 304; His-tagged, column-purified PDS; read-out: I50
hydrilla PDS Arg^304 → Histidine, His-tagged (Hydrilla verticillata, UniProt Q66PY0, R304H), sequence (Q66PY0 77-580 R304H): as the sequence (Q66PY0 77-580 R304C) above, with C228H counted along it
Excerpt: as §1, §2, §3, §4, §5, §6, §7

[6] = tested on: hydrilla PDS Arg^304 → Cysteine, His-tagged; assay type: biochemical, Hydrilla verticillata; conditions: Cysteine at 304 relative to Arginine; Table 2A
Excerpt: as §1, §2, §3, §4, §5, §6, §7

[7] = tested on: hydrilla PDS Arg^304 → Threonine, His-tagged; assay type: biochemical, Hydrilla verticillata; conditions: Threonine at 304 relative to Arginine; Table 2A
Excerpt: as §1, §2, §3, §4, §5, §6, §7

[8] = target: hydrilla PDS Arg^304 → Threonine, His-tagged (Hydrilla verticillata, UniProt Q66PY0, R304T); assay type: biochemical; conditions: Threonine at 304; His-tagged, column-purified PDS; read-out: I50
hydrilla PDS Arg^304 → Threonine, His-tagged (Hydrilla verticillata, UniProt Q66PY0, R304T), sequence (Q66PY0 77-580 R304T): as the sequence (Q66PY0 77-580 R304C) above, with C228T counted along it
Excerpt: as §1, §2, §3, §4, §5, §6, §7

| Compound | IC50 [1] [µM] | IC50 [2] [µM] | R/S [3] | R/S [4] | IC50 [5] [µM] | R/S [6] | R/S [7] | IC50 [8] [µM] |
| --- | --- | --- | --- | --- | --- | --- | --- | --- |
| O=C(Nc1ccc(F)cc1F)c1cccnc1Oc1cccc(C(F)(F)F)c1 [Diflufenican] | 241 | 223 | 1.0 | 2.2 | 103 | 2.4 | 1.0 | 104 |
| CNC1=C(c2cccc(C(F)(F)F)c2)C(=O)C(c2ccccc2)O1 (stereo not shown) [Flurtamone] | 1150 | 707 | 2.1 | 2.4 | 630 | 3.8 | 5.9 | 1780 |
| CNc1cnn(-c2cccc(C(F)(F)F)c2)c(=O)c1Cl [Norflurazon] | 1870 | 4100 | 9.7 | 82.0 | 486 | 37.0 | 30.0 | 1510 |
| O=C1C(Cl)C(CCl)CN1c1cccc(C(F)(F)F)c1 (stereo not shown) [Fluorochloridone] | 283 | 518 | 2.8 | 4.0 | 364 | 2.2 | 1.6 | 210 |
| CCC(Oc1ccc(F)c(C(F)(F)F)c1)C(=O)NCc1ccccc1 (stereo not shown) [Beflubutamid] | 232 | 465 | 1.75 | 6.5 | 126 | 3.2 | 1.5 | 106 |
| O=C(Nc1ccc(F)cc1)c1cccc(Oc2cccc(C(F)(F)F)c2)n1 [Piconilafen, Picolinafen] | 96 | 62 | 0.3 | 0.2 | 112 | 0.3 | 0.2 | 60 |
| Fluridone | – | – | 4.8 | 2.0 | – | 2.6 | 7.8 | – |
